{
  "source": "ChEMBL document CHEMBL4359842",
  "about": "(J Med Chem, 2019)",
  "key": {"[1]": {"test": "Drug level in APPswe/PS1dE9 double mutant-transgenic mouse brain at 30 mg/kg, ip administered as single dose measured after 2 hrs by LC-MS/MS analysis", "assay_type": "ADME, organism-based", "conditions": "read-out: Drug uptake"}, "[2]": {"test_system": "Mus musculus", "test": "In vivo inhibition of JNK in APPswe/PS1dE9 double mutant-transgenic mouse model assessed as reduction in Tau phosphorylation at Thr205 residue in cortex at 30 mg/kg, ip administered once daily for 12 weeks measured post-last dose by Western blot analysis", "assay_type": "functional, organism-based"}, "[3]": {"test": "Ratio of drug level in APPswe/PS1dE9 double mutant-transgenic mouse brain to plasma at 30 mg/kg, ip administered as single dose measured after 8 hrs by LC-MS/MS analysis", "assay_type": "ADME, organism-based", "conditions": "read-out: BPR"}, "[4]": {"target": "Mitogen-activated protein kinase 9 (Homo sapiens, UniProt P45984)", "sequence (P45984 whole entry)": "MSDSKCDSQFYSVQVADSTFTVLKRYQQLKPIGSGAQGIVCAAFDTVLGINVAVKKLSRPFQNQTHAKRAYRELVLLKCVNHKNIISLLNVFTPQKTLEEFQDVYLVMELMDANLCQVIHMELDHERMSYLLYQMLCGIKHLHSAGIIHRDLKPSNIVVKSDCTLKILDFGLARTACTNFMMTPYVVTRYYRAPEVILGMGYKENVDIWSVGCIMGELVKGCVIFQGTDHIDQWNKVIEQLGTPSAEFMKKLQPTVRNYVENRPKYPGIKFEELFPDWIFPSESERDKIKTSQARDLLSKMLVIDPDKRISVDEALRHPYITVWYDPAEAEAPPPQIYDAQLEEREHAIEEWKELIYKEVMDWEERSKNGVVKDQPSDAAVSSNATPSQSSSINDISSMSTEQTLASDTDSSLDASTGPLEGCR", "test": "Inhibition of human JNK2alpha2 using ATF2 as substrate measured after 40 mins in presence of [gamma33P]ATP by scintillation counting analysis"}, "[5]": {"test": "Mean residence time in APPswe/PS1dE9 double mutant-transgenic mouse at 30 mg/kg, ip administered as single dose by LC-MS/MS analysis", "assay_type": "ADME, organism-based", "conditions": "in vivo"}, "[6]": {"test_system": "Mus musculus", "test": "Improvement in spatial memory impairment in ip dosed APPswe/PS1dE9 double mutant-transgenic mouse model assessed as decrease in area occupied by diffused plaque in hippocampus administered once daily for 12 weeks measured post-last dose by thioflavin S staining-based fluorescence microscopic analysis", "assay_type": "functional, organism-based"}, "[7]": {"test_system": "Mus musculus", "test": "Improvement in spatial memory impairment in APPswe/PS1dE9 double mutant-transgenic mouse model assessed as decrease in escape latency at 15 to 30 mg/kg, ip administered once daily for 12 weeks measured 24 hrs after training trial by morris water maze test", "assay_type": "functional, organism-based"}, "[8]": {"test": "Mean residence time in APPswe/PS1dE9 double mutant-transgenic mouse at 3 mg/kg, iv administered as single dose by LC-MS/MS analysis", "assay_type": "ADME, organism-based", "conditions": "in vivo"}, "[9]": {"test_system": "Mus musculus", "test": "Effect on acquisition latency time in APPswe/PS1dE9 double mutant-transgenic mouse model at 15 to 30 mg/kg, ip administered once daily for 12 weeks measured post-last dose by step-through passive avoidance test", "assay_type": "ADME, organism-based", "conditions": "in vivo, 2016 h"}, "[10]": {"test": "Ratio of drug level in APPswe/PS1dE9 double mutant-transgenic mouse brain to plasma at 30 mg/kg, ip administered as single dose measured after 2 hrs by LC-MS/MS analysis", "assay_type": "ADME, organism-based", "conditions": "read-out: BPR"}, "[11]": {"test_system": "Mus musculus", "test": "Improvement in spatial memory impairment in APPswe/PS1dE9 double mutant-transgenic mouse model assessed as decrease in exploration distance at 15 to 30 mg/kg, ip administered once daily for 12 weeks measured 24 hrs after training trial by morris water maze test", "assay_type": "functional, organism-based"}, "[12]": {"test": "Clearance in APPswe/PS1dE9 double mutant-transgenic mouse at 30 mg/kg, ip administered as single dose by LC-MS/MS analysis", "assay_type": "ADME, organism-based", "conditions": "in vivo"}, "[13]": {"test_system": "Mus musculus", "test": "In vivo inhibition of […] phosphorylation in cortex of APPswe/PS1dE9 double mutant-transgenic mouse model at 30 mg/kg, ip administered once daily for 12 weeks measured post-last dose by Western blot analysis", "assay_type": "functional, organism-based"}, "[14]": {"test_system": "Mus musculus", "test": "Improvement in spatial memory impairment in ip dosed APPswe/PS1dE9 double mutant-transgenic mouse model assessed as decrease in area occupied by fibrillar plaque in cortex administered once daily for 12 weeks measured post-last dose by thioflavin S staining-based fluorescence microscopic analysis", "assay_type": "functional, organism-based"}, "[15]": {"test": "Plasma concentration in APPswe/PS1dE9 double mutant-transgenic mouse at 30 mg/kg, ip administered as single dose measured after 0.5 hrs by LC-MS/MS analysis", "assay_type": "ADME, organism-based"}, "[16]": {"test_system": "Mus musculus", "test": "In vivo inhibition of JNK in APPswe/PS1dE9 double mutant-transgenic mouse model assessed as reduction in Tau phosphorylation at Ser235 residue in cortex at 30 mg/kg, ip administered once daily for 12 weeks measured post-last dose by Western blot analysis", "assay_type": "functional, organism-based"}, "[17]": {"test": "Drug level in APPswe/PS1dE9 double mutant-transgenic mouse brain at 30 mg/kg, ip administered as single dose measured after 8 hrs by LC-MS/MS analysis", "assay_type": "ADME, organism-based", "conditions": "read-out: Drug uptake"}, "[18]": {"test": "Primary phase half life in APPswe/PS1dE9 double mutant-transgenic mouse at 30 mg/kg, ip administered as single dose by LC-MS/MS analysis", "assay_type": "ADME, organism-based", "conditions": "in vivo, read-out: alphat1/2 (converted)"}, "[19]": {"test": "Cmax in APPswe/PS1dE9 double mutant-transgenic mouse at 30 mg/kg, ip administered as single dose by LC-MS/MS analysis", "assay_type": "ADME, organism-based", "parameters": "dose 30 mg/kg, route intraperitoneal", "conditions": "in vivo"}, "[20]": {"test_system": "SH-SY5Y", "test": "Effect on cell proliferation in human SH-SY5Y cells at 1 to 10 uM measured after 1 hr by MTT assay", "assay_type": "ADME, cell-based"}, "[21]": {"test_system": "Mus musculus", "test": "In vivo inhibition of JNK in APPswe/PS1dE9 double mutant-transgenic mouse model assessed as reduction in Tau phosphorylation at Ser235 residue in hippocampus at 30 mg/kg, ip administered once daily for 12 weeks measured post-last dose by Western blot analysis", "assay_type": "functional, organism-based"}, "[22]": {"test": "Ratio of drug level in APPswe/PS1dE9 double mutant-transgenic mouse brain to plasma at 30 mg/kg, ip administered as single dose measured after 0.5 hrs by LC-MS/MS analysis", "assay_type": "ADME, organism-based", "conditions": "read-out: BPR"}, "[23]": {"test_system": "Mus musculus", "test": "Improvement in spatial memory impairment in ip dosed APPswe/PS1dE9 double mutant-transgenic mouse model assessed as decrease in number of diffused plaque in cortex administered once daily for 12 weeks measured post-last dose by thioflavin S staining-based fluorescence microscopic analysis", "assay_type": "functional, organism-based"}, "[24]": {"test": "Toxicity in APPswe/PS1dE9 double mutant-transgenic mouse assessed as change in body weight at 15 to 30 mg/kg, ip administered once daily for 12 weeks and measured every week during compound dosing", "assay_type": "organism-based", "conditions": "in vivo, 2016 h"}, "[25]": {"test": "Toxicity in APPswe/PS1dE9 double mutant-transgenic mouse model assessed as effect on time to reach target quadrant at 15 to 30 mg/kg, ip administered once daily for 12 weeks measured 48 hrs after training trial by morris water maze test", "assay_type": "organism-based", "conditions": "in vivo"}, "[26]": {"test": "Toxicity in APPswe/PS1dE9 double mutant-transgenic mouse model assessed as effect on swimming speed at 15 to 30 mg/kg, ip administered once daily for 12 weeks measured 48 hrs after training trial by morris water maze test", "assay_type": "organism-based", "conditions": "in vivo"}, "[27]": {"test": "Clearance in APPswe/PS1dE9 double mutant-transgenic mouse at 3 mg/kg, iv administered as single dose by LC-MS/MS analysis", "assay_type": "ADME, organism-based", "conditions": "in vivo"}, "[28]": {"test_system": "Mus musculus", "test": "Improvement in spatial memory impairment in ip dosed APPswe/PS1dE9 double mutant-transgenic mouse model assessed as decrease in number of diffused plaque in hippocampus administered once daily for 12 weeks measured post-last dose by thioflavin S staining-based fluorescence microscopic analysis", "assay_type": "functional, organism-based"}, "[29]": {"test_system": "Mus musculus", "test": "In vivo inhibition of JNK in APPswe/PS1dE9 double mutant-transgenic mouse model assessed as reduction in Tau phosphorylation at Thr205 residue in hippocampus at 30 mg/kg, ip administered once daily for 12 weeks measured post-last dose by Western blot analysis", "assay_type": "functional, organism-based"}, "[30]": {"test": "Terminal half life in APPswe/PS1dE9 double mutant-transgenic mouse at 3 mg/kg, iv administered as single dose by LC-MS/MS analysis", "assay_type": "ADME, organism-based", "conditions": "in vivo, read-out: beta t1/2 (converted)"}, "[31]": {"test_system": "Mus musculus", "test": "In vivo inhibition of JNK in APPswe/PS1dE9 double mutant-transgenic mouse model assessed as reduction in APP phosphorylation at Thr668 residue in hippocampus at 30 mg/kg, ip administered once daily for 12 weeks measured post-last dose by Western blot analysis", "assay_type": "functional, organism-based"}},
  "note": "Activity calls are given as the source filed them. The rule behind the calls is not given here.",
  "data": [
    {"smiles": "O=C1N/C(=N/c2ccccc2Cl)S/C1=C1\\C(=O)Nc2ccc(F)cc21", "values": [
      {"measurement": "concentration at 2 h", "setting": "[1]", "value": 158, "unit": "ng/g"},
      {"measurement": "inhibition", "setting": "[2]", "value": "Active"},
      {"measurement": "Kp at 8 h", "setting": "[3]", "value": 0.4},
      {"measurement": "IC50", "setting": "[4]", "value": "> 100", "unit": "µM"},
      {"measurement": "MRT", "setting": "[5]", "value": 2.78, "unit": "h"},
      {"measurement": "Activity", "setting": "[6]", "value": "Dose-dependent effect"},
      {"measurement": "Activity", "setting": "[7]", "value": "Active"},
      {"measurement": "MRT", "setting": "[8]", "value": 1.61, "unit": "h"},
      {"measurement": "Activity", "setting": "[9]", "value": "Non-Toxic"},
      {"measurement": "Kp at 2 h", "setting": "[10]", "value": 0.135},
      {"measurement": "Activity", "setting": "[11]", "value": "Active"},
      {"measurement": "CL/F", "setting": "[12]", "value": 26.5, "unit": "mL/min/kg"},
      {"measurement": "inhibition", "setting": "[13]", "value": "Active"},
      {"measurement": "Activity", "setting": "[14]", "value": "Dose-dependent effect"},
      {"measurement": "concentration at 0.5 h", "setting": "[15]", "value": 20600, "unit": "ng/mL"},
      {"measurement": "inhibition", "setting": "[16]", "value": "Active"},
      {"measurement": "concentration at 8 h", "setting": "[17]", "value": 30.7, "unit": "ng/g"},
      {"measurement": "half-life", "setting": "[18]", "value": 0.34, "unit": "h"},
      {"measurement": "Cmax", "setting": "[19]", "value": 19200, "unit": "ng/mL"},
      {"measurement": "Activity", "setting": "[20]", "value": "Non-Toxic"},
      {"measurement": "inhibition", "setting": "[21]", "value": "Active"},
      {"measurement": "Kp at 0.5 h", "setting": "[22]", "value": 0.0024},
      {"measurement": "Activity", "setting": "[23]", "value": "Dose-dependent effect"},
      {"measurement": "Activity", "setting": "[24]", "value": "Non-Toxic"},
      {"measurement": "Activity", "setting": "[25]", "value": "Non-Toxic"},
      {"measurement": "Activity", "setting": "[26]", "value": "Non-Toxic"},
      {"measurement": "clearance", "setting": "[27]", "value": 24.2, "unit": "mL/min/kg"},
      {"measurement": "Activity", "setting": "[28]", "value": "Dose-dependent effect"},
      {"measurement": "inhibition", "setting": "[29]", "value": "Active"},
      {"measurement": "half-life", "setting": "[30]", "value": 8.83, "unit": "h"},
      {"measurement": "inhibition", "setting": "[31]", "value": "Active"}
    ]}
  ]
}
